Test results reported in US20170306409A1, “CANCER PATIENT SELECTION FOR ADMINISTRATION OF WNT SIGNALING INHIBITORS USING RNF43 MUTATION STATUS” (NOVARTIS AG, priority 2012, published 2017).

Key:
Assay type in all cases: cell-based, human
RNF43 mRNA, YAPC cells = assay: quantitative RT-PCR gene expression analysis; settings: 3 μM of IWP2
Description: FIG. 4(a) is a bar graph showing that the depletion of β-catenin decreases mRNA level of AXIN2 and RNF43. Cells were treated with siRNA, and relative mRNA levels of indicated genes were analyzed by quantitative RT-PCR. […] YAPC cells were treated with 3 μM of IWP2 or 1 μM of LGK974, and subjected to gene expression analysis by quantitative RT-PCR.
(§1) For reverse transcription and quantitative PCR (qPCR), total RNA was extracted from cells or tumors using the RNeasy Plus Mini Kit (Qiagen). 1 μg of RNA were reverse transcribed with Taqman Reverse Transcription Reagents (Applied Biosystems) according to the manufacturer's instruction. Quantitative PCR was performed in 12 μl reactions consisting of 0.6 μl of 20× Taqman probe and PCR primer mix, 6 μl 2× Taqman FAST Advanced Master Mix (Applied Biosystems), and 5.4 μl diluted cDNA template. The thermocycling conditions utilized were 20 seconds at 95° C., followed by 40 cycles of 1 second at 95° C. and 20 seconds at 60° C. All experiments were performed in quadruplicates. Gene expression analysis was performed using the comparative ΔΔCT method and normalized with the housekeeping gene GUSB or 18S. The Taqman probes were purchased from Applied Biosystems.
Consistent with this observation, treatment of Porcupine inhibitor IWP2 or LGK974 increased the cell surface level of Frizzled and decreased the mRNA levels of AXIN2 and RNF43. See, FIG. 4(b). […]

[1] = system: STF Wnt reporter, YAPC-STF cells; assay: SuperTOPFlash (STF) luciferase reporter assay; settings: absence of exogenous Wnt3a, LGK974 or IWP-2
Description: For the luciferase reporter assay, YAPC-STF reporter cells were transfected with siRNA and treated with Wnt3a conditioned medium or compound where applicable. STF luciferase assays were performed using BrightGlo Luciferase Assay kits (Promega) according to the manufacturer's instructions.
To construct pancreatic cell lines expressing STF reporter, HEK293 cells were grown in medium recommended by ATCC supplemented with 10% FBS. Retrovirus or lentivirus was produced from HEK293 cells by standard virus packaging procedure using FuGENE 6 (Roche) transfection reagent. Pancreatic cell lines expressing STF reporter, RNF43 constructs, or DOX-inducible β-catenin shRNA were generated by viral infection and drug selection.
Depletion of RNF43 induces Dvl phosphorylation and β-catenin stabilization. […] RNF43 siRNA-induced STF activity in the absence of exogenous Wnt3a is inhibited by LGK974 and a previously known Porcupine inhibitor IWP-2. Chen B et al. (2009) Nat. Chem. Biol. 5(2):100-7. See, FIG. 3(b), showing that this activity is dependent on the expression of endogenous Wnt proteins.

[2] = system: cell surface Frizzled (FZD), YAPC cells; assay: flow cytometry of membrane Frizzled (pan-Frizzled antibody 18R5)
Description: YAPC cells were transfected with indicated siRNA, and membrane levels of Frizzled were analyzed by flowcytometry using pan-Frizzled antibody 18R5.
For flow cytometric analysis, cells were harvested using trypsin-free cell dissociation buffer (Invitrogen) and resuspended in FACS buffer (PBS with 1% BSA and 0.02% sodium azide). After blocking, cells were incubated with anti-pan-Frizzled (18R5) antibody for 1 hour at 4° C., followed by incubation with Allophycocyanin (APC)-conjugated goat anti-human IgG secondary antibody. After extensive washes using FACS buffer, cells were stained with propidium iodide (PI) and subjected to multi-channel analysis using BD LSR II flow cytometer.
(§2) Consistent with this observation, treatment of Porcupine inhibitor IWP2 or LGK974 increased the cell surface level of Frizzled and decreased the mRNA levels of AXIN2 and RNF43. See, FIG. 4(b). […] YAPC cells were treated with 3 μM of IWP-2 or 1 μM of LGK974, and subjected to flowcytometry analysis for membrane Frizzled expression.

Axin2, YAPC = assay: Axin2 qPCR assay (pathway inhibition); settings: YAPC cells; 3 μM of IWP2
Description: as §1, §2

Structure (SMILES): Cc1ccc2nc(NC(=O)CSc3nc4c(c(=O)n3-c3ccccc3)SCC4)sc2c1 [IWP-2, reference compound]
- mRNA level of RNF43 (RNF43 mRNA, YAPC cells): decreased
- RNF43 siRNA-induced STF activity [1]: inhibited
- Median FZD intensity in FACS ([2]; 3 μM of IWP-2, DMSO 721): 1754
- Median FZD intensity in FACS ([2]; 3 μM of IWP-2, DMSO 721, listed as IWP2): increased
- mRNA level of AXIN2 (Axin2, YAPC): decreased
